Measurements taken from US8080546B2, “Pyrazolo-pyridinone derivatives and methods of use” (Amgen Inc., priority 2007, dated 2011).
Where two headings read alike, the source gives them in different places.

How the values were obtained:
[1] = system: THP1 cells; assay: Lipopolysaccharide-activated THP1 cell TNF production assay (THP1 cell based); details: Homo sapiens, THP-1, LPS-induced TNF-α
Experimental: Lipopolysaccharide-Activated THP1 Cell TNF Production Assay
THP1 cells are resuspended in fresh THP1 media (RPMI 1640, 10% heat-inactivated FBS, 1XPGS, 1XNEAA, plus 30 μM PME) at a concentration of 1E6/mL. One hundred microliters of cells per well are plated in a polystyrene 96-well tissue culture. One microgram per mL of bacterial LPS is prepared in THP1 media and is transferred to the wells. Test compounds are dissolved in 100% DMSO and are serially diluted 3-fold in a polypropylene 96-well microtiter plate (drug plate). HI control and LO control wells contain only DMSO. One microliter of test compound from the drug plate followed by 10 μL of LPS are transferred to the cell plate. The treated cells are induced to synthesize and secrete TNF-α at 37° C. for 3 h. Forty microliters of conditioned media are transferred to a 96-well polypropylene plate containing 110 μL of ECL buffer (50 mM Tris-HCl pH 8.0, 100 mM NaCl, 0.05% Tween 20, 0.05% NaN3 and 1% FBS) supplemented with 0.44 nM MAB610 monoclonal Ab (R&D Systems), 0.34 nM ruthenylated AF210NA polyclonal Ab (R&D Systems) and 44 μg/mL sheep anti-mouse M280 Dynabeads (Dynal). After a 2 h incubation at room temperature with shaking, the reaction is read on the ECL M8 Instrument (IGEN Inc.). A low voltage is applied to the ruthenylated TNF-α immune complexes, which in the presence of TPA (the active component in Origlo), results in a cyclical redox reaction generating light at […]. The amount of secreted TNF-α in the presence of compound compared with that in the presence of DMSO vehicle alone (HI control) is calculated using the formula: % control (POC)=(cpd−average LO)/(average HI−average LO)*100. Data (consisting of POC and inhibitor concentration in μM) is fitted to a 4-parameter equation (y=A+((B−A)/(1+((x/C)^D))), where A is the minimum y (POC) value, B is the maximum y (POC), C is the x (cpd concentration) at the point of inflection and D is the slope factor) using a Levenburg-Marquardt non-linear regression algorithm.

[2] = system: IL-1; assay: LPS induced IL-1 cell based assay (LPS-activated monocytes); details: Homo sapiens, Monocyte
Experimental: Lipopolysaccharide-Activated Monocyte TNF Production Assay
Test compounds were evaluated in vitro for the ability to inhibit the production of TNF by monocytes activated with bacterial lipopolysaccharide (LPS). Fresh residual source leukocytes (a byproduct of plateletpheresis) were obtained from a local blood bank, and peripheral blood mononuclear cells (PBMCs) were isolated by density gradient centrifugation on Ficol-Paque Plus (Pharmacia). PBMCs were suspended at 2×10^6/mL in DMEM supplemented to contain 2% FCS, 10 mM, 0.3 mg/mL […], 100 U/mL penicillin G and […] streptomycin sulfate (complete media). Cells were plated into Falcon flat bottom, 96 well culture plates (200 μL/well) and cultured overnight at 37° C. and 6% CO2. Non-adherent cells were removed by washing with 200 μl/well of fresh medium. Wells containing adherent cells (˜70% monocytes) were replenished with 100 μL of fresh medium.
Preparation of Test Compound Stock Solutions
Test compounds were dissolved in […]. Compound stock solutions were prepared to an initial concentration of […]. Stocks were diluted initially to 20-200 μM in complete media. Nine two-fold serial dilutions of each compound were then prepared in complete medium.
Treatment of Cells with Test Compounds and Activation of TNF Production with Lipopolysaccharide
One hundred microliters of each test compound dilution were added to microtiter wells containing adherent monocytes and 100 μL complete medium. Monocytes were cultured with test compounds for 60 min at which time 25 μL of complete medium containing 30 ng/mL lipopolysaccharide from E. coli K532 were added to each well. Cells were cultured an additional 4 hrs. Culture supernatants were then removed and TNF presence in the supernatants was quantified using an ELISA. […]
Standard curve data were fit to a second order polynomial and unknown TNF-α concentrations determined from their OD by solving this equation for concentration. TNF concentrations were then plotted vs. test compound concentration using a second order polynomial. This equation was then used to calculate the concentration of test compounds causing a 50% reduction in TNF production.
Compounds of the invention can also be shown to inhibit LPS-induced release of IL-1β, IL-6 and/or IL-8 from monocytes by measuring concentrations of IL-1β, IL-6 and/or IL-8 by methods well known to those skilled in the art. […] Thus, the compounds of the invention may lower elevated levels of TNF-α, IL-1, IL-6, and IL-8 levels. Reducing elevated levels of these inflammatory cytokines to basal levels or below is favorable in controlling, slowing progression, and alleviating many disease states.

[3] = molecular target: p38 (Homo sapiens, UniProt Q16539); assay: p38 in-vitro HTRF enzyme assay; format: biochemical; details: recombinant human enzyme, read-out: p38 enyme HTRF assay IC50
p38, sequence (Q16539 whole entry): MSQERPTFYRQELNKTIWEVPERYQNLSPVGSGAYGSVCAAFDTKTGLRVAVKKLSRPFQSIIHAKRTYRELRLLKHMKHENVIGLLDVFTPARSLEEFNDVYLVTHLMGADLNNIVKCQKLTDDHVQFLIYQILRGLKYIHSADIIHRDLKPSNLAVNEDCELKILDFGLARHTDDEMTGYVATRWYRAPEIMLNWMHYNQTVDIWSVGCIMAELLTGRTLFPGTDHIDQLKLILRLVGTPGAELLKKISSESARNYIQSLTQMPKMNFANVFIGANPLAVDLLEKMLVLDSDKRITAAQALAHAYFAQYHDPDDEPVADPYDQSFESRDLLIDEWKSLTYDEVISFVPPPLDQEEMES
Experimental: p38 In-Vitro HTRF Enzyme Assay
The compounds of the invention can be tested for their respective affinities for the p38 protein using a conventional p38 in-vitro enzyme activity assay. For example, a P38-alpha HTRF assay may be used to measure the protein's in-vitro phosphorylation activity, and the data analyzed using time resolved fluorimetry techniques (FRET). A p38 HTRF assay is as follows. The kinase reaction buffer for p38α, p38β, p38δ and p38γ HTRF assays consists of 50 mM Tris-pH 7.5, 5 mM MgCl2, 0.1 mg/mL BSA, 100 μM Na3VO4 and 0.5 mM DTT. The HTRF detection buffer contains 100 mM HEPES-pH 7.5, 100 mM NaCl, 0.1% BSA, 0.05% Tween-20, and 10 mM EDTA. Each compound was dissolved in 100% DMSO and serially diluted (3 fold, 10 point) in a polypropylene 96-well microtiter plate (drug plate). The final starting concentration of the compound in the p38α and p38β enzymatic assays was about 1 μM. The final starting concentration of each compound in the p38δ and p38γ enzymatic assays was about 10 μM. The p38α, p38β, p38δ and p38γ kinase reactions were carried out in a polypropylene 96-well black round bottom assay plate in total volume of 30 μL kinase reaction buffer. Appropriate concentration of purified and activated enzyme (recombinant human) was mixed with indicated concentration of ATP and 100 nM GST-ATF2-Avitag, in the presence or absence (HI control) of each compound. In the absence of enzyme, the background was measured as LO control. HI controls and LO controls contained only DMSO. The reaction was allowed to incubate for 1 hour at RT. […] After 60 minutes incubation at room temperature, the assay plate was read in a Discovery Plate Reader. […] The resulting data was analyzed by taking the proportion of substrate phosphorylated in the kinase reaction in the presence of each individual compound and comparing it with that phosphorylated in the presence of DMSO vehicle alone (HI control). The data was calculated using the formula: % control (POC)=(compound−average LO)/(average HI−average LO)*100. […] All results were expressed as the mean±the standard error of the mean. Data acquisition and non-linear regression algorithms were performed using Activity Base v5.2 and XLfit software v4.1 respectively. Additional assay information may be obtained in Park Y W, Cummings R T, Wu L, et al. Homogeneous Proximity Tyrosine Kinase Assays Scintillation Proximity Assay versus Homogeneous Time-Resolved Fluorescence. Analytical Biochemistry.

| Compound | IC50 ([1]; actual values) [nM] | IC50 ([2]; actual values) [nM] | IC50 ([1]; range symbols) [nM] | IC50 ([2]; range symbols) [nM] | IC50 ([3]; range symbols) [nM] | IC50 ([3]; actual values) [nM] |
| --- | --- | --- | --- | --- | --- | --- |
| Cn1c(=O)cc(Oc2cc(C(=O)NC3CC3)ccc2Cl)c2cnn(-c3cc(F)ccc3F)c21 [Example 26, 4-chloro-N-cyclopropyl-3-((1-(2,5-difluorophenyl)-7-methyl-6-oxo-6,7-dihydro-1H-pyrazolo[3,4-b]pyridin-4-yl)oxy)benzamide] | 8.2 | 101 |  |  |  |  |
| Cc1ccc(C(=O)NC2CC2)cc1Nc1cc(=O)n(C)c2c1cnn2-c1c(F)cccc1F [Example 15, N-cyclopropyl-3-((1-(2,6-difluorophenyl)-7-methyl-6-oxo-6,7-dihydro-1H-pyrazolo[3,4-b]pyridin-4-yl)amino)-4-methylbenzamide] |  |  | < 25 | < 25 | < 25 |  |
| Cc1ccc(C(=O)NC2CC2)cc1Oc1cc(=O)n(C)c2c1cnn2-c1cc(F)ccc1F [Example 22, N-cyclopropyl-3-((1-(2,5-difluorophenyl)-7-methyl-6-oxo-6,7-dihydro-1H-pyrazolo[3,4-b]pyridin-4-yl)oxy)-4-methylbenzamide] |  |  | < 25 | 100 to 249 | < 25 |  |
| Cc1ccc(C(=O)NC2CC2)cc1Oc1cc(=O)n(C)c2c1cnn2-c1ccc(F)cc1F [Example 19, N-cyclopropyl-3-((1-(2,4-difluorophenyl)-7-methyl-6-oxo-6,7-dihydro-1H-pyrazolo[3,4-b]pyridin-4-yl)oxy)-4-methylbenzamide] |  |  | < 25 | 25 to 99 | < 25 |  |
| Cn1c(=O)cc(Nc2cc(C(=O)NC3CC3)ccc2Cl)c2cnn(-c3cc(F)ccc3F)c21 [Example 12, 4-chloro-N-cyclopropyl-3-((1-(2,5-difluorophenyl)-7-methyl-6-oxo-6,7-dihydro-1H-pyrazolo[3,4-b]pyridin-4-yl)amino)benzamide] |  |  | < 25 | < 25 | < 25 |  |
| CCn1c(=O)cc(Nc2cc(C(=O)NC3CC3)ccc2Cl)c2cnn(-c3ccc(F)cc3)c21 [Example 29, 4-chloro-N-cyclopropyl-3-((7-ethyl-1-(4-fluorophenyl)-6-oxo-6,7-dihydro-1H-pyrazolo[3,4-b]pyridin-4-yl)amino)benzamide] | 1.4 | 3.6 |  |  |  | 1.7 |
| Cc1ccc(C(=O)NC2CC2)cc1Oc1cc(=O)n(C)c2c1cnn2-c1c(F)cccc1F [Example 16, N-cyclopropyl-3-((1-(2,6-difluorophenyl)-7-methyl-6-oxo-6,7-dihydro-1H-pyrazolo[3,4-b]pyridin-4-yl)oxy)-4-methylbenzamide] |  |  | < 25 | 25 to 99 | < 25 |  |
| Cc1ccc(C(N)=O)cc1Nc1cc(=O)n(C)c2c1cnn2-c1cc(F)ccc1F [Example 21, 3-((1-(2,5-difluorophenyl)-7-methyl-6-oxo-6,7-dihydro-1H-pyrazolo[3,4-b]pyridin-4-yl)amino)-4-methylbenzamide] |  |  | < 25 | 25 to 99 | < 25 |  |
| CCn1c(=O)cc(Nc2cc(C(=O)NC3CC3)ccc2Cl)c2cnn(-c3ccc(F)cc3F)c21 [Example 27, 4-chloro-N-cyclopropyl-3-((1-(2,4-difluorophenyl)-7-ethyl-6-oxo-6,7-dihydro-1H-pyrazolo[3,4-b]pyridin-4-yl)amino)benzamide] | 0.4 | 3.3 |  |  |  | 1.2 |
| Cc1ccc(C(=O)NC2CC2)cc1Nc1cc(=O)n(C)c2c1cnn2-c1ccc(F)cc1F [Example 14, N-cyclopropyl-3-((1-(2,4-difluorophenyl)-7-methyl-6-oxo-6,7-dihydro-1H-pyrazolo[3,4-b]pyridin-4-yl)amino)-4-methylbenzamide] |  |  | < 25 | < 25 |  |  |
| Cn1c(=O)cc(Nc2cc(C(=O)NC3CC3)ccc2Cl)c2cnn(-c3c(F)cccc3F)c21 [Example 11, 4-chloro-N-cyclopropyl-3-((1-(2,6-difluorophenyl)-7-methyl-6-oxo-6,7-dihydro-1H-pyrazolo[3,4-b]pyridin-4-yl)amino)benzamide] |  |  | < 25 | < 25 | < 25 |  |
| Cn1c(=O)cc(Nc2ccc(F)cc2)c2cnn(-c3c(F)cccc3F)c21 [Example 10, 1-(2,6-difluorophenyl)-4-((4-fluorophenyl)amino)-7-methyl-1,7-dihydro-6H-pyrazolo[3,4-b]pyridin-6-one] |  |  | 250 to 999 | 1000 to 5000 | 1000 to 5000 |  |
| Cc1ccc(C(=O)NC(C)(C)C)cc1Nc1cc(=O)n(C)c2c1cnn2-c1ccc(F)cc1F [Example 25, N-tert-butyl-3-((1-(2,4-difluorophenyl)-7-methyl-6-oxo-6,7-dihydro-1H-pyrazolo[3,4-b]pyridin-4-yl)amino)-4-methylbenzamide] |  |  | 25 to 99 | 100 to 249 |  |  |
| Cn1c(=O)cc(Nc2cc(C(=O)NC3CC3)ccc2Cl)c2cnn(-c3ccc(F)cc3F)c21 [Example 13, 4-chloro-N-cyclopropyl-3-((1-(2,4-difluorophenyl)-7-methyl-6-oxo-6,7-dihydro-1H-pyrazolo[3,4-b]pyridin-4-yl)amino)benzamide] |  |  | < 25 | < 25 |  |  |
